Assay results from patent US7824745B2, “Benzochromene derivatives” (Merck Patent GmbH, priority 2005, dated 2010).

Experiments:
[1] = Optical anisotropy Δn (589 nm, 20° C.), host mixture ZLI-4792; assay type: physicochemical; settings: 5% in ZLI-4792
Experimental: The host mixture used for determining the applicationally relevant physical parameters is ZLI-4792 from Merck KGaA, Germany. As an exception, the determination of the dielectric anisotropy of dielectrically negative compounds is carried out using ZLI-2857, likewise from Merck KGaA, Germany. The values for the respective compound to be investigated are obtained from the change in the properties, for example the dielectric constants, of the host mixture after addition of the compound to be investigated and extrapolation to 100% of the compound employed. […]
(§1) All concentrations in this application, unless explicitly stated otherwise, are indicated in percent by weight and relate to the corresponding mixture as a whole. All physical properties are and have been determined in accordance with “Merck Liquid Crystals, Physical Properties of Liquid Crystals”, status November 1997, Merck KGaA, Germany, and apply to a temperature of 20° C., unless explicitly stated otherwise. An is determined at 589 nm and Δ∈ at 1 kHz.
The following examples are intended to explain the invention without limiting it. Above and below, percentages are percent by weight. […] V10, V50 and V90 (the threshold voltage, mid-grey voltage and saturation voltage respectively) and V0 (the capacitive threshold voltage) were each determined at 20° C.

[2] = Dielectric anisotropy Δ∈ of the compounds, dissolved in a liquid-crystalline host, capacitance at 1 kHz, extrapolated to 100%; assay type: physicochemical; settings: extrapolated from 5% solution in ZLI-2857, 20° C.
Excerpt: In the present application, the term dielectrically positive compounds denotes compounds having a Δ∈ of >1.5, the term dielectrically neutral compounds denotes those in which −1.5≦Δ∈≦1.5, and the term dielectrically negative compounds denotes those having a Δ∈ of <−1.5. The […] of this mixture at 1 kHz in at least one test cell with a layer thickness of about 20 μm having a homeotropic surface alignment and at least one test cell with a layer thickness of about 20 μm having a homogeneous surface alignment. The measurement voltage is typically 0.5 V to 1.0 V, but is always less than the capacitive threshold of the respective liquid-crystal mixture. […]
as §1
The following examples are intended to explain the invention without limiting it. […] V10, V50 and V90 (the threshold voltage, mid-grey voltage and saturation voltage respectively) and V0 (the capacitive threshold voltage) were each determined at 20° C.

CCCC1CCc2c(c(=O)oc3cc(OCC)ccc23)C1 (stereo not drawn) [Example 1.1, 3-ethoxy-8-propyl-7,8,9,10-tetrahydrobenzo[c]chromen-6-one]
Δn [1]: 0.1302 | Δ∈ [2]: −7.5 | melting point: 108 °C
